# Reference: patent US20070093520A1, “Method of treatment of diarrhea-predominant irritable bowel syndrome in a subject” (priority 2005, published 2007)
# Tested on: diarrhea-predominant IBS subjects
# Test: 3007 Study: open-label 52-week safety study, adverse events and withdrawals
# Conditions: Study 3007
structure (smiles),measurement,setting,value
"Cc1nccn1C[C@H]1CCc2c(c3cccc4c3n2CCC4)C1=O [cilansetron, (R)-(−)-4,5,6,8,9,10-hexahydro-10-[(2-methyl-1H-imidazol-1-yl)methyl]-11H-pyrido-[3,2,1-jk]-carbazol-11-one]",SAE: Hepatobiliary Disorders,P/C,0 n (%)
same,SAE: Immune System Disorders,P/C,1 (<1%) n (%)
same,SAE: Infections and Infestations,P/C,2 (<1%) n (%)
same,"SAE: Injury, Poisoning and Procedural Complications",P/C,0 n (%)
same,SAE: Irritable Bowel Syndrome Aggravated,P/C,0 n (%)
same,SAE: Leiomyoma NOS,P/C,0 n (%)
same,SAE: Loss of Consciousness,P/C,0 n (%)
same,SAE: Myocardial Infarction,P/C,0 n (%)
same,"SAE: Neoplasms Benign, Malignant and Unspecified (Incl Cysts and Polyps)",P/C,3 (1%) n (%)
same,SAE: Nervous System Disorders,P/C,0 n (%)
same,SAE: Non-Accidental Overdose,P/C,0 n (%)
same,SAE: Ovarian Cancer NOS*,P/C,0 n (%)
same,SAE: Ovarian Cystadenofibroma*,P/C,1 (<1%) n (%)
same,SAE: Pregnancy NOS*,P/C,0 n (%)
same,"SAE: Pregnancy, Puerperium and Perinatal Conditions",P/C,0 n (%)
same,SAE: Psychiatric Disorders,P/C,1 (<1%) n (%)
same,SAE: Psychotic Disorder NOS,P/C,1 (<1%) n (%)
same,SAE: Renal and Urinary Disorders,P/C,1 (<1%) n (%)
same,SAE: Reproductive System and Breast Disorders,P/C,0 n (%)
same,"SAE: Respiratory, Thoracic and Mediastinal Disorders",P/C,1 (<1%) n (%)
same,SAE: Sinusitis Acute NOS,P/C,1 (<1%) n (%)
same,SAE: Status Epilepticus,P/C,0 n (%)
same,SAE: Suicidal Ideation,P/C,1 (<1%) n (%)
same,SAE: Supraventricular Tachycardia,P/C,1 (<1%) n (%)
same,SAE: Urinary Tract Infection NOS,P/C,1 (<1%) n (%)
same,SAE: Uterine Polyp NOS*,P/C,0 n (%)
same,SAE: Vaginal Cyst*,P/C,0 n (%)
same,TEAEs that led to permanent discontinuation of study medication,P/C,18%
same,Total Number of Subjects with at Least One Serious Adverse Event,P/C,10 (4%) n (%)
same,subjects with at least one TEAE,P/C,78%
same,subjects with at least one treatment-emergent SAE,P/C,4%
same,withdrawal for AE,P/C,17%
same,withdrawal for lack of efficacy,P/C,21%
same,Number of deaths,P/C (N = 279),0 n (%)
same,Number of subjects who permanently discontinued study medication due to a TEAE (as reported on the AE CRF),P/C (N = 279),50 (18) n (%)
same,Number of subjects with at least one AE of special interest,P/C (N = 279),185 (66) n (%)
same,Number of subjects with at least one SAE,P/C (N = 279),10 (4) n (%)
same,Number of subjects with at least one TEAE,P/C (N = 279),217 (78) n (%)
same,Number of subjects with at least one TEAE leading to dose reduction,P/C (N = 279),4 (1) n (%)
same,Number of subjects with at least one related TEAE,P/C (N = 279),150 (54) n (%)
same,Number of subjects with at least one severe TEAE,P/C (N = 279),44 (16) n (%)
same,Number of subjects who died,"P/C, all enrolled",0 n (%)
same,Primary reason for withdrawal: Adverse event and lack of efficacy,"P/C, all enrolled",34 (12) n (%)
same,Primary reason for withdrawal: Baseline complaint/adverse event,"P/C, all enrolled",14 (5) n (%)
same,Primary reason for withdrawal: Lack of efficacy,"P/C, all enrolled",25 (9) n (%)
same,TEAE incidence: blood CK increased,female subjects,1%
same,TEAE incidence: constipation,female subjects,28%
same,TEAE incidence: diarrhea excluding infective,female subjects,9%
same,TEAE incidence: nausea and vomiting symptoms,female subjects,8%
same,TEAE incidence: sinusitis NOS,female subjects,9%
same,TEAE incidence: urinary tract infections,female subjects,8%
same,prevalence of constipation overall,fifth (>12 months) interval,3%
same,prevalence of TEAEs overall,first three-month interval,62%
same,prevalence of constipation overall,first three-month interval,17%
same,subjects discontinued due to AEs,first three-month interval,7%
same,prevalence of TEAEs overall,fourth three-month interval,54%
same,prevalence of constipation overall,fourth three-month interval,2%
same,subjects discontinued due to AEs,fourth three-month interval,2%
same,prevalence of TEAEs overall,last (>12 months) interval,70%
same,TEAE incidence: blood CK increased,male subjects,12%
same,TEAE incidence: constipation,male subjects,15%
same,TEAE incidence: diarrhea excluding infective,male subjects,3%
same,TEAE incidence: nausea and vomiting symptoms,male subjects,3%
same,TEAE incidence: sinusitis NOS,male subjects,3%
same,TEAE incidence: urinary tract infections,male subjects,1%
same,subjects who discontinued due to the SAEs,of 29 subjects with SAEs,Eleven
same,subjects with at least one constipation episode reported as related to study medication,of the 128 subjects with constipation,124 subjects
same,SAE: Abdominal Pain Upper,overall,1 (<1%) n (%)
same,SAE: Adenomyosis*,overall,1 (<1%) n (%)
same,SAE: Angina Pectoris,overall,2 (<1%) n (%)
same,SAE: Appendicitis,overall,1 (<1%) n (%)
same,SAE: Asthma NOS,overall,1 (<1%) n (%)
same,SAE: Benign Ovarian Tumour*,overall,1 (<1%) n (%)
same,SAE: Bladder Prolapse,overall,1 (<1%) n (%)
same,SAE: Bone Neoplasm Malignant,overall,1 (<1%) n (%)
same,SAE: Breast Cancer NOS*,overall,2 (<1%) n (%)
same,SAE: Bronchopneumonia NOS,overall,1 (<1%) n (%)
same,SAE: Calculus Ureteric,overall,1 (<1%) n (%)
same,SAE: Cardiac Disorders,overall,4 (<1%) n (%)
same,SAE: Chest Pain,overall,2 (<1%) n (%)
same,SAE: Cholelithiasis,overall,1 (<1%) n (%)
same,SAE: Colitis Ischaemic,overall,1 (<1%) n (%)
same,SAE: Depression,overall,1 (<1%) n (%)
same,SAE: Endometriosis*,overall,1 (<1%) n (%)
same,SAE: Fibroma NOS,overall,1 (<1%) n (%)
same,SAE: Food Allergy,overall,1 (<1%) n (%)
same,SAE: Gastritis NOS,overall,1 (<1%) n (%)
same,SAE: Gastroenteritis NOS,overall,1 (<1%) n (%)
same,SAE: Gastrointestinal Disorders,overall,4 (<1%) n (%)
same,SAE: General Disorders and Administration Site Conditions,overall,2 (<1%) n (%)
same,SAE: Hallucination NOS,overall,1 (<1%) n (%)
same,"SAE: Hallucination, Auditory",overall,1 (<1%) n (%)
same,SAE: Heat Exhaustion,overall,1 (<1%) n (%)
same,SAE: Hepatitis NOS,overall,1 (<1%) n (%)
same,SAE: Hepatobiliary Disorders,overall,2 (<1%) n (%)
same,SAE: Immune System Disorders,overall,1 (<1%) n (%)
same,SAE: Infections and Infestations,overall,3 (<1%) n (%)
same,"SAE: Injury, Poisoning and Procedural Complications",overall,2 (<1%) n (%)
same,SAE: Irritable Bowel Syndrome Aggravated,overall,1 (<1%) n (%)
same,SAE: Leiomyoma NOS,overall,1 (<1%) n (%)
same,SAE: Loss of Consciousness,overall,2 (<1%) n (%)
same,SAE: Myocardial Infarction,overall,1 (<1%) n (%)
same,"SAE: Neoplasms Benign, Malignant and Unspecified (Incl Cysts and Polyps)",overall,6 (1%) n (%)
same,SAE: Nervous System Disorders,overall,2 (<1%) n (%)
same,SAE: Non-Accidental Overdose,overall,1 (<1%) n (%)
same,SAE: Ovarian Cancer NOS*,overall,1 (<1%) n (%)
same,SAE: Ovarian Cystadenofibroma*,overall,1 (<1%) n (%)
same,SAE: Pregnancy NOS*,overall,1 (<1%) n (%)
same,"SAE: Pregnancy, Puerperium and Perinatal Conditions",overall,1 (<1%) n (%)
same,SAE: Psychiatric Disorders,overall,1 (<1%) n (%)
same,SAE: Psychotic Disorder NOS,overall,1 (<1%) n (%)
same,SAE: Renal and Urinary Disorders,overall,2 (<1%) n (%)
same,SAE: Reproductive System and Breast Disorders,overall,2 (<1%) n (%)
same,"SAE: Respiratory, Thoracic and Mediastinal Disorders",overall,1 (<1%) n (%)
same,SAE: Sinusitis Acute NOS,overall,1 (<1%) n (%)
same,SAE: Status Epilepticus,overall,1 (<1%) n (%)
same,SAE: Suicidal Ideation,overall,1 (<1%) n (%)
same,SAE: Supraventricular Tachycardia,overall,1 (<1%) n (%)
same,SAE: Urinary Tract Infection NOS,overall,1 (<1%) n (%)
same,SAE: Uterine Polyp NOS*,overall,1 (<1%) n (%)
same,SAE: Vaginal Cyst*,overall,1 (<1%) n (%)
same,TEAE incidence: GI disorders,overall,50%
same,TEAE incidence: Infections and infestations,overall,32%
same,TEAE incidence: Investigations,overall,24%
same,TEAE incidence: Musculoskeletal and connective tissue disorders,overall,16%
same,TEAE incidence: Nervous system disorders,overall,12%
same,TEAE incidence: abdominal pain NOS,overall,7%
same,TEAE incidence: back pain,overall,3%
same,TEAE incidence: blood CK increased,overall,5%
same,TEAE incidence: constipation,overall,24%
same,TEAE incidence: diarrhea NOS,overall,6%
same,TEAE incidence: fecal occult blood positive,overall,6%
same,TEAE incidence: flatulence,overall,5%
same,TEAE incidence: headache NOS,overall,6%
same,TEAE incidence: nasopharyngitis,overall,5%
same,TEAE incidence: nausea,overall,5%
same,TEAE incidence: sinusitis NOS,overall,7%
same,TEAE incidence: upper respiratory tract infection NOS,overall,5%
same,TEAE incidence: urinary tract infection NOS,overall,5%
same,TEAEs that led to dose reduction,overall,2%
same,TEAEs that led to permanent discontinuation: GI disorders,overall,12%
same,TEAEs that led to permanent discontinuation: abdominal pain NOS,overall,2%
same,TEAEs that led to permanent discontinuation: diarrhea NOS,overall,1%
same,TEAEs that led to permanent discontinuation: flatulence,overall,1%
same,Total Number of Subjects with at Least One Serious Adverse Event,overall,29 (5%) n (%)
same,discontinued study medication due to constipation,overall,5%
same,dose reduction due to constipation,overall,1%
same,"overall incidence of TEAEs possibly, probably, or unlikely related to study medication",overall,56%
same,related TEAE: abdominal pain NOS,overall,6%
same,related TEAE: blood CK increased,overall,3%
same,related TEAE: constipation,overall,23%
same,related TEAE: diarrhea NOS,overall,3%
same,related TEAE: fecal occult blood positive,overall,3%
same,related TEAE: flatulence,overall,4%
same,related TEAE: headache NOS,overall,4%
same,related TEAE: nausea,overall,3%
same,severe TEAE: abdominal pain NOS,overall,2%
same,severe TEAE: constipation,overall,3%
same,severe TEAE: headache NOS,overall,1%
same,special interest TEAEs,overall,69%
same,subjects with at least one TEAE,overall,82%
same,subjects with severe TEAEs,overall,18%
same,withdrawal for AE (combined categories),overall,15%
same,withdrawal for lack of efficacy (combined categories),overall,18%
same,prevalence of TEAEs overall,second three-month interval,55%
same,prevalence of constipation overall,second three-month interval,9%
same,subjects discontinued due to AEs,second three-month interval,6%
same,prevalence of TEAEs overall,third three-month interval,54%
same,prevalence of constipation overall,third three-month interval,5%
same,subjects discontinued due to AEs,third three-month interval,2%
